Measured values: ChEMBL document CHEMBL4732125, “Structures/cytotoxicity/selectivity relationship of natural steroidal saponins against GSCs and primary mechanism of tribulosaponin A” (Eur J Med Chem, 2021)
Activity calls are given as the source filed them. The rule behind the calls is not given here.

Tests used:
[1] = Induction of apoptosis in human GSC-3 cells assessed as early apoptotic cells at 20 uM incubated for 36 hrs by Annexin V-FITC/PI staining based flow cytometric analysis (reference value: 6.99%); assay type: functional
GSC-18 [2] = experiment: Cytotoxicity against human GSC18 cells assessed as inhibition of cell growth at 20 uM after 5 days; assay type: functional, cell-based; details: time 5.0 day
HUVEC [3] = experiment: Cytotoxicity against HUVEC assessed as reduction in cell viability after 72 hrs by MTS assay; assay type: cell-based, Homo sapiens; details: Homo sapiens, HUVEC
GSC-18 [4] = experiment: Antiproliferative activity against human GSC-18 cells assessed as inhibition of cell growth at 15 uM after 48 hrs by BrdU incorporation assay; assay type: functional, cell-based
[5] = Induction of apoptosis in human GSC-3 cells assessed as late apoptotic cells at 20 uM incubated for 36 hrs by Annexin V-FITC/PI staining based flow cytometric analysis (reference value: 7.79%); assay type: functional
GSC-3 [6] = experiment: Antiproliferative activity against human GSC-3 cells assessed as inhibition of cell growth at 15 uM after 48 hrs by BrdU incorporation assay; assay type: functional, cell-based
[7] = Induction of apoptosis in human GSC-3 cells assessed as viable cells at 7.5 uM incubated for 36 hrs by Annexin V-FITC/PI staining based flow cytometric analysis (reference value: 83.8%); assay type: functional; details: read-out: Activity
T98G [8] = experiment: Inhibition of colony formation in human […] cells assessed as tumor spheres damage at 15 uM by crystal violet staining based assay; assay type: functional, cell-based
[9] = Induction of apoptosis in human GSC-3 cells assessed as necrotic cells at 10 uM incubated for 36 hrs by Annexin V-FITC/PI staining based flow cytometric analysis (reference value: 1.42%); assay type: functional
T98G [10] = experiment: Inhibition of colony formation in human […] cells assessed as decrease in number of tumor spheres at 15 uM by crystal violet staining based assay; assay type: functional, cell-based
GSC-18 [11] = experiment: Induction of apoptosis in human GSC-18 cells assessed as cell shrank at 20 uM; assay type: functional, cell-based
[12] = Induction of apoptosis in human GSC-3 cells assessed as viable cells at 20 uM incubated for 36 hrs by Annexin V-FITC/PI staining based flow cytometric analysis (reference value: 83.8%); assay type: functional; details: read-out: Activity
GSC-3 [13] = experiment: Inhibition of colony formation in human GSC-3 cells assessed as tumor spheres damage at 15 uM after 2 weeks by crystal violet staining based assay; assay type: functional, cell-based
[14] = Induction of apoptosis in human GSC-3 cells assessed as early apoptotic cells at 7.5 uM incubated for 36 hrs by Annexin V-FITC/PI staining based flow cytometric analysis (reference value: 6.99%); assay type: functional
GSC-3 [15] = experiment: Induction of apoptosis in human GSC-3 cells assessed as accumulation of ROS by measuring increase in NCF1 expression at 15 uM after 48 hrs by transcriptome analysis; assay type: functional, cell-based
GSC-3 [16] = experiment: Induction of apoptosis in human GSC-3 cells assessed as ROS accumulation at 4 to 12 uM after 3 hrs in presence of NAC by DCFH-DA assay; assay type: functional, cell-based; details: dose 4-12 µM
U-87 MG [17] = experiment: Cytotoxicity against human U-87 MG cells assessed as inhibition of cell growth at 20 uM after 5 days; assay type: cell-based; details: u-87mg atcc, 120 h, time 5 day
U-87 MG [18] = experiment: Inhibition of colony formation in human U-87 MG cells assessed as decrease in number of tumor spheres at 15 uM by crystal violet staining based assay; assay type: functional, cell-based; details: U-87MG ATCC
[19] = Induction of apoptosis in human GSC-3 cells assessed as necrotic cells at 20 uM incubated for 36 hrs by Annexin V-FITC/PI staining based flow cytometric analysis (reference value: 1.42%); assay type: functional
HEK-293T [20] = experiment: Cytotoxicity against human 293T cells assessed as reduction in cell viability after 72 hrs by MTS assay; assay type: cell-based; details: Homo sapiens, HEK-293T
HEK-293T [21] = experiment: Induction of apoptosis in human 293T cells assessed as accumulation of ROS by measuring increase in NOX1 expression at 15 uM after 48 hrs by transcriptome analysis; assay type: functional, cell-based
GSC-18 [22] = experiment: Induction of apoptosis in human GSC-18 cells assessed as appearance of round and detached cells at 20 uM; assay type: functional, cell-based
[23] = Cytotoxicity against human GSC18 cells assessed as reduction in cell viability after 72 hrs by MTS assay; assay type: functional, cell-based, GSC-18; details: GSC18, 72 h
GSC-18 [24] = experiment: Inhibition of colony formation in human GSC-18 cells assessed as decrease in number of tumor spheres at 15 uM after 2 weeks by crystal violet staining based assay; assay type: functional, cell-based
HEK-293T [25] = experiment: Cytotoxicity against human 293T cells assessed as inhibition of cell growth at 20 uM after 5 days; assay type: cell-based; details: 120 h, time 5 day
GSC-18 [26] = experiment: Inhibition of colony formation in human GSC-18 cells assessed as tumor spheres damage at 15 uM after 2 weeks by crystal violet staining based assay; assay type: functional, cell-based
[27] = Induction of apoptosis in human GSC-3 cells assessed as late apoptotic cells at 10 uM incubated for 36 hrs by Annexin V-FITC/PI staining based flow cytometric analysis (reference value: 7.79%); assay type: functional
T98G [28] = experiment: Cytotoxicity against human T98G cells assessed as inhibition of cell growth at 20 uM after 5 days; assay type: cell-based; details: 120 h, time 5 day
GSC-18 [29] = experiment: Induction of apoptosis in human GSC-18 cells assessed as ROS accumulation at 4 to 12 uM after 3 hrs in presence of NAC by DCFH-DA assay; assay type: functional, cell-based; details: dose 4-12 µM
[30] = Induction of apoptosis in human GSC-3 cells assessed as necrotic cells at 7.5 uM incubated for 36 hrs by Annexin V-FITC/PI staining based flow cytometric analysis (reference value: 1.42%); assay type: functional
GSC-3 [31] = experiment: Induction of apoptosis in human GSC-3 cells assessed as appearance of round and detached cells at 20 uM; assay type: functional, cell-based
[32] = Induction of apoptosis in human GSC-3 cells assessed as late apoptotic cells at 7.5 uM incubated for 36 hrs by Annexin V-FITC/PI staining based flow cytometric analysis (reference value: 7.79%); assay type: functional
HUVEC [33] = experiment: Cytotoxicity against HUVEC assessed as inhibition of cell growth at 20 uM after 5 days; assay type: cell-based; details: human, 120 h, time 5 day
HEK-293T [34] = experiment: Induction of apoptosis in human 293T cells assessed as accumulation of ROS by measuring increase in NCF1 expression at 15 uM after 48 hrs by transcriptome analysis; assay type: functional, cell-based
U-87 MG [35] = experiment: Cytotoxicity against human U-87 MG cells assessed as reduction in cell viability after 72 hrs by MTS assay; assay type: cell-based, U-87MG ATCC; details: Homo sapiens, U-87 MG
GSC-3 [36] = experiment: Inhibition of colony formation in human GSC-3 cells assessed as decrease in number of tumor spheres at 15 uM after 2 weeks by crystal violet staining based assay; assay type: functional, cell-based
GSC-3 [37] = experiment: Induction of apoptosis in human GSC-3 cells assessed as accumulation of ROS by measuring increase in NOX1 expression at 15 uM after 48 hrs by transcriptome analysis; assay type: functional, cell-based
GSC-3 [38] = experiment: Induction of apoptosis in human GSC-3 cells assessed as increase in cleaved caspase 3 at 15 uM after 48 hrs by immunofluorescence assay; assay type: functional, cell-based
[39] = Induction of apoptosis in human GSC-3 cells assessed as early apoptotic cells at 10 uM incubated for 36 hrs by Annexin V-FITC/PI staining based flow cytometric analysis (reference value: 6.99%); assay type: functional
U-87 MG [40] = experiment: Inhibition of colony formation in human U-87 MG cells assessed as tumor spheres damage at 15 uM by crystal violet staining based assay; assay type: functional, cell-based; details: U-87MG ATCC
GSC-3 [41] = experiment: Induction of apoptosis in human GSC-3 cells assessed as reduction in Bcl-2 protein expression at 7.5 to 20 uM after 48 hrs by Western blotting analysis; assay type: functional, cell-based; details: dose 7.5-20 µM
T98G [42] = experiment: Cytotoxicity against human T98G assessed as reduction in cell viability after 72 hrs by MTS assay; assay type: cell-based; details: Homo sapiens, T98G
GSC-18 [43] = experiment: Induction of apoptosis in human GSC-18 cells assessed as increase in cleaved caspase 3 at 15 uM after 48 hrs by immunofluorescence assay; assay type: functional, cell-based
GSC-3 [44] = experiment: Induction of apoptosis in human GSC-3 cells assessed as cell shrank at 20 uM; assay type: functional, cell-based
[45] = Cytotoxicity against human GSC3 cells assessed as reduction in cell viability after 72 hrs by MTS assay; assay type: functional, cell-based; details: GSC-3, 72 h
GSC-3 [46] = experiment: Cytotoxicity against human GSC3 cells assessed as inhibition of cell growth at 20 uM after 5 days; assay type: functional, cell-based; details: time 5.0 day
[47] = Induction of apoptosis in human GSC-3 cells assessed as viable cells at 10 uM incubated for 36 hrs by Annexin V-FITC/PI staining based flow cytometric analysis (reference value: 83.8%); assay type: functional; details: read-out: Activity

CC1=C(CC[C@H](C)CO[C@@H]2O[C@H](CO)[C@@H](O)[C@H](O)[C@H]2O)O[C@H]2C[C@H]3[C@@H]4CC[C@@H]5C[C@@H](O[C@@H]6O[C@H](CO)[C@@H](O[C@@H]7O[C@@H](C)[C@H](O)[C@@H](O)[C@H]7O)[C@H](O)[C@H]6O[C@@H]6O[C@@H](C)[C@H](O)[C@@H](O)[C@H]6O)CC[C@]5(C)[C@H]4CC[C@]3(C)[C@@H]12
Activity [1]: 53.3% | Activity (GSC-18 [2]): Active | IC50 (HUVEC [3]): > 100 µM | Activity (GSC-18 [4]): Active | Activity [5]: 5.03% | Activity (GSC-3 [6]): Active | viability at 7.5 µM [7]: 74.1% | inhibition (T98G [8]): Active | Activity [9]: 0.69% | inhibition (T98G [10]): Active | Activity (GSC-18 [11]): Active | viability at 20 µM [12]: 41.1% | Activity (GSC-3 [13]): Active | Activity [14]: 19.4% | Activity (GSC-3 [15]): Active | Activity (GSC-3 [16]): inactive | Activity (U-87 MG [17]): Non-Toxic | Activity (U-87 MG [18]): Active | Activity [19]: 0.56% | IC50 (HEK-293T [20]): > 100 µM | Activity (HEK-293T [21]): inactive | Activity (GSC-18 [22]): Active | IC50 [23]: 6.6 µM | inhibition (GSC-18 [24]): Active | Activity (HEK-293T [25]): Non-Toxic | Activity (GSC-18 [26]): Active | Activity [27]: 4.67% | Activity (T98G [28]): Non-Toxic | Activity (GSC-18 [29]): inactive | Activity [30]: 1.01% | Activity (GSC-3 [31]): Active | Activity [32]: 5.46% | Activity (HUVEC [33]): Non-Toxic | Activity (HEK-293T [34]): inactive | IC50 (U-87 MG [35]): > 100 µM | inhibition (GSC-3 [36]): Active | Activity (GSC-3 [37]): Active | Activity (GSC-3 [38]): Active | Activity [39]: 34.3% | Activity (U-87 MG [40]): Active | Activity (GSC-3 [41]): Active | IC50 (T98G [42]): > 100 µM | Activity (GSC-18 [43]): Active | Activity (GSC-3 [44]): Active | IC50 [45]: 7 µM | Activity (GSC-3 [46]): Active | viability at 10 µM [47]: 60.4%
